Experimental findings from PubChem BioAssay AID328 (DTP/NCI, 2004) are described below.

This experiment has as its system BDF1 mice, P388 leukemia ip, median survival T/C. Description: NCI In Vivo Anticancer Drug Screen. Data for tumor model P388 Leukemia (intraperitoneal) in B6D2F1 (BDF1) mice. As to conditions: endpoint: median survival time, higher = longer survival. Put shortly:
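Read-out is survival of treated animals expressed relative to the vehicle group, as a T/C ratio.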

Where [1] appears, read: dose: 50.0 mg/kg/injection, schedule: Q01DX009 (ip), vehicle: saline.
The mark [2] stands for this setting: dose: 100.0 mg/kg/injection, schedule: Q01DX001 (ip), vehicle: Klucel (hydroxypropylcellulose) (HPC).
[3] abbreviates: dose: 200.0 mg/kg/injection, schedule: Q01DX001 (ip), vehicle: Klucel (hydroxypropylcellulose) (HPC).
The mark [4] stands for this setting: dose: 400.0 mg/kg/injection, schedule: Q01DX001 (ip), vehicle: Klucel (hydroxypropylcellulose) (HPC).
Setting [5] is: dose: 100.0 mg/kg/injection, schedule: Q01DX009 (ip), vehicle: Klucel (hydroxypropylcellulose) (HPC).
Where [6] appears, read: dose: 200.0 mg/kg/injection, schedule: Q01DX009 (ip), vehicle: Klucel (hydroxypropylcellulose) (HPC).
The mark [7] stands for this setting: dose: 100.0 mg/kg/injection, schedule: Q01DX009 (ip), vehicle: saline with Tween-80.
The mark [8] stands for this setting: dose: 200.0 mg/kg/injection, schedule: Q01DX009 (ip), vehicle: saline with Tween-80.
Setting [9] is: dose: 50.0 mg/kg/injection, schedule: Q01DX009 (ip), vehicle: saline with Tween-80.
Setting [10] is: dose: 100.0 mg/kg/injection, schedule: Q04DX003 (ip), vehicle: Klucel (hydroxypropylcellulose) (HPC).
Setting [11] is: dose: 200.0 mg/kg/injection, schedule: Q04DX003 (ip), vehicle: Klucel (hydroxypropylcellulose) (HPC).
[12] abbreviates: dose: 400.0 mg/kg/injection, schedule: Q04DX003 (ip), vehicle: Klucel (hydroxypropylcellulose) (HPC).

“And” between values parts separate entries of the source, which are not always exact repeats. Equal entries are not always repeated. Inconclusive results and toxic doses are left out.

As for `CC(=O)[O][Hg][c]1cc[c]([Hg][O]C(C)=O)s1`, the T/C is, setting by setting: (dose: 3.0 mg/kg/injection, schedule: Q01DX009 (ip), vehicle: Klucel (hydroxypropylcellulose) (HPC)) 100 % of control; (dose: 3.0 mg/kg/injection, schedule: Q04DX003 (ip), vehicle: Klucel (hydroxypropylcellulose) (HPC)) 91 % of control; (dose: 6.0 mg/kg/injection, schedule: Q01DX009 (ip), vehicle: Klucel (hydroxypropylcellulose) (HPC)) 100 % of control; (dose: 6.0 mg/kg/injection, schedule: Q04DX003 (ip), vehicle: Klucel (hydroxypropylcellulose) (HPC)) 100 % of control; (dose: 12.0 mg/kg/injection, schedule: Q01DX009 (ip), vehicle: Klucel (hydroxypropylcellulose) (HPC)) 100 % of control; (dose: 12.0 mg/kg/injection, schedule: Q04DX003 (ip), vehicle: Klucel (hydroxypropylcellulose) (HPC)) 100 % of control.
Take `COc1ncnc2c1c(C#N)cn2C1OC(CO)C(O)C1O` (configuration not stated): the T/C reads like this: (dose: 6.25 mg/kg/injection, schedule: Q01DX009 (ip), vehicle: saline) 102 % of control; (dose: 12.5 mg/kg/injection, schedule: Q01DX009 (ip), vehicle: saline) 102 % of control; (dose: 25.0 mg/kg/injection, schedule: Q01DX009 (ip), vehicle: saline) 102 % of control; under setting [1], 95 % of control.
Turning to `O=C(Nc1cccc(Cl)c1)Oc1ccc2ccccc2c1`, the T/C reads like this: under setting [2], 109 % of control; under setting [3], 113 % of control; under setting [4], 100 % of control.
For the compound `CC(C)NC1(C(N)=O)CCN(Cc2ccccc2)CC1`, the T/C (dose: 50.0 mg/kg/injection, schedule: Q01DX009 (ip), vehicle: Klucel (hydroxypropylcellulose) (HPC)) was 95 % of control; the T/C under setting [5] is 91 % of control; the T/C under setting [6] was 95 % of control.
As to `c1ccc(-c2nc3ccccc3nc2-c2ccc(Sc3ccc(-c4nc5ccccc5nc4-c4ccccc4)cc3)cc2)cc1`, the T/C under setting [7] was 101 % of control and the T/C under setting [8] is 93 % of control.
For `Oc1c(Cl)cc(Cl)cc1C=Nc1cc(C(F)(F)F)ccc1Cl`, the T/C is 87 % of control under setting [9], 89 % of control under setting [7] and 99 % of control under setting [8].
As for `CCCCCCCCCCCCCCOc1ccc(Cc2ccccc2)cc1`, the T/C runs as follows: under setting [10], 100 % of control; under setting [11], 90 % of control.
For `CCCCC(CC)COC(=O)CCC(CCC(=O)OCC(CC)CCCC)C(=O)OCC(CC)CCCC` (configuration not stated), the T/C reads like this: (dose: 100.0 mg/kg/injection, schedule: Q04DX003 (ip), vehicle: saline with Tween-80) 90 % of control; (dose: 200.0 mg/kg/injection, schedule: Q04DX003 (ip), vehicle: saline with Tween-80) 118 % of control; (dose: 400.0 mg/kg/injection, schedule: Q04DX003 (ip), vehicle: saline with Tween-80) 95 % of control.
As to `Nc1ncnc2[nH]ncc12`, the T/C (dose: 1.5 mg/kg/injection, schedule: Q01DX010 (ip), vehicle: saline) was 90 % of control; the T/C (dose: 3.0 mg/kg/injection, schedule: Q01DX010 (ip), vehicle: saline) is 104 % of control and 115 % of control; the T/C (dose: 6.0 mg/kg/injection, schedule: Q01DX010 (ip), vehicle: saline) is 100 % of control; the T/C (dose: 12.0 mg/kg/injection, schedule: Q01DX010 (ip), vehicle: saline) was 109 % of control and 110 % of control.
Regarding `Cc1ccc(Cl)cc1NC(=O)c1ccccc1C(=O)O`, the T/C is 91 % of control under setting [10], 95 % of control under setting [11] and 91 % of control under setting [12].
As for `C[C@H]1CN1C1=CC(=O)C(N2C[C@@H]2C)=CC1=O`, the T/C (dose: 0.03 mg/kg/injection, schedule: Q01DX009 (ip), vehicle: saline) is 109 % of control; the T/C (dose: 0.12 mg/kg/injection, schedule: Q01DX009 (ip), vehicle: saline) is 118 % of control; the T/C (dose: 0.5 mg/kg/injection, schedule: Q01DX009 (ip), vehicle: Klucel (hydroxypropylcellulose) (HPC)) was 160 % of control; the T/C (dose: 0.5 mg/kg/injection, schedule: Q01DX009 (ip), vehicle: saline) is 191 % of control; the T/C (dose: 1.0 mg/kg/injection, schedule: Q01DX009 (ip), vehicle: Klucel (hydroxypropylcellulose) (HPC)) is 160 % of control; the T/C (dose: 1.0 mg/kg/injection, schedule: Q01DX009 (ip), vehicle: saline) was 220 % of control. For the same compound, the T/C was 200 % of control (dose: 2.0 mg/kg/injection, schedule: Q01DX009 (ip), vehicle: Klucel (hydroxypropylcellulose) (HPC)) and 190 % of control (dose: 4.0 mg/kg/injection, schedule: Q01DX009 (ip), vehicle: Klucel (hydroxypropylcellulose) (HPC)).
With `COc1ccc(/C(=C\S(C)=O)c2cccs2)cc1` (configuration not stated), the T/C is 105 % of control under setting [9], 107 % of control under setting [7] and 100 % of control under setting [8].
With `COc1cccc(CCC(=O)O)c1OC`, the T/C reads like this: (dose: 25.0 mg/kg/injection, schedule: Q04DX003 (ip), vehicle: water) 109 % of control; (dose: 50.0 mg/kg/injection, schedule: Q04DX003 (ip), vehicle: water) 101 % of control; (dose: 100.0 mg/kg/injection, schedule: Q04DX003 (ip), vehicle: water) 111 % of control; (dose: 200.0 mg/kg/injection, schedule: Q04DX003 (ip), vehicle: water) 103 % of control; (dose: 400.0 mg/kg/injection, schedule: Q04DX003 (ip), vehicle: water) 94 % of control.
Regarding `O=[N+]([O-])c1ccc2c3c(cccc13)-c1ccccc1-2`, the T/C under setting [5] was 110 % of control; the T/C under setting [10] was 90 % of control; the T/C under setting [6] was 105 % of control; the T/C under setting [11] was 95 % of control; the T/C (dose: 400.0 mg/kg/injection, schedule: Q01DX009 (ip), vehicle: Klucel (hydroxypropylcellulose) (HPC)) was 100 % of control; the T/C under setting [12] is 100 % of control.
Consider `O=C(NCCCl)OCC(F)(F)F`, for which the T/C (dose: 50.0 mg/kg/injection, schedule: Q01DX005 (ip), vehicle: Klucel (hydroxypropylcellulose) (HPC)) was 113 % of control; the T/C (dose: 100.0 mg/kg/injection, schedule: Q01DX005 (ip), vehicle: Klucel (hydroxypropylcellulose) (HPC)) is 97 % of control; the T/C (dose: 200.0 mg/kg/injection, schedule: Q01DX005 (ip), vehicle: Klucel (hydroxypropylcellulose) (HPC)) was 108 % of control.
Take `OCC12COCN1COC2`: the T/C was 104 % of control under setting [1] and 104 % of control (dose: 100.0 mg/kg/injection, schedule: Q01DX009 (ip), vehicle: saline).
For `CCCCNc1c(OC)ccc2c(C)c3[n+](cc12)CCc1cc(OC)c(OC)cc1-3`, the T/C by setting is: (dose: 1.56 mg/kg/injection, schedule: Q04DX003 (ip), vehicle: water) 103 % of control; (dose: 3.13 mg/kg/injection, schedule: Q04DX003 (ip), vehicle: water) 103 % of control.
Take `CC(C)CCNc1ncnc2c1cnn2C`: the T/C (dose: 25.0 mg/kg/injection, schedule: Q01DX009 (ip), vehicle: saline with Tween-80) is 100 % of control; the T/C under setting [9] was 100 % of control; the T/C under setting [7] was 109 % of control.
With `CC1CC(OC(=O)CCN2CC2)CC(C)(C)C1` (configuration not stated), the T/C by setting is: (dose: 5.0 mg/kg/injection, schedule: Q04DX003 (ip), vehicle: Klucel (hydroxypropylcellulose) (HPC)) 95 % of control and 109 % of control; (dose: 10.0 mg/kg/injection, schedule: Q04DX003 (ip), vehicle: Klucel (hydroxypropylcellulose) (HPC)) 104 % of control; (dose: 20.0 mg/kg/injection, schedule: Q04DX003 (ip), vehicle: Klucel (hydroxypropylcellulose) (HPC)) 100 % of control.
As for `C=C/C=C\N(CC)CC`, the T/C runs as follows: (dose: 0.78 mg/kg/injection, schedule: Q01DX009 (ip), vehicle: water) 110 % of control; (dose: 1.56 mg/kg/injection, schedule: Q01DX009 (ip), vehicle: water) 109 % of control and 112 % of control; (dose: 3.12 mg/kg/injection, schedule: Q01DX009 (ip), vehicle: water) 107 % of control and 121 % of control; (dose: 6.25 mg/kg/injection, schedule: Q01DX009 (ip), vehicle: water) 89 % of control and 100 % of control and 102 % of control; (dose: 12.5 mg/kg/injection, schedule: Q01DX009 (ip), vehicle: water) 102 % of control and 123 % of control; (dose: 25.0 mg/kg/injection, schedule: Q01DX009 (ip), vehicle: water) 89 % of control and 116 % of control and 118 % of control.
As to `COc1cc(O)c2c(c1)C1=C(C)C(C)(O)OC1=CC2=O` (configuration not stated), the T/C runs as follows: under setting [2], 95 % of control; under setting [3], 100 % of control; under setting [4], 86 % of control.
